Experiments:
[1] = target: T1, Gonadotropin-releasing hormone receptor (Homo sapiens, UniProt P30968); assay: Inhibitory concentration against human leutinizing releasing hormone receptor
T1 sequence (P30968 whole entry): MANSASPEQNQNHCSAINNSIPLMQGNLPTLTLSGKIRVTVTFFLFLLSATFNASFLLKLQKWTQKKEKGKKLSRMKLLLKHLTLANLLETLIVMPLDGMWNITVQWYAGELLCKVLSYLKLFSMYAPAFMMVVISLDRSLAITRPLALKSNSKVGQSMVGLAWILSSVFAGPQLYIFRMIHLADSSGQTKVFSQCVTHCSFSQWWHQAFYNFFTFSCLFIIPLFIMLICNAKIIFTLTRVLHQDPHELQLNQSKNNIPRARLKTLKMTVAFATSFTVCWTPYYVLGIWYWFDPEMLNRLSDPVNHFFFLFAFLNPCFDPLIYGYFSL

[2] = target: T2, Gonadotropin-releasing hormone receptor (Rattus norvegicus, UniProt P30969); assay: Inhibitory concentration against rat leutinizing releasing hormone receptor
T2 sequence (P30969 whole entry): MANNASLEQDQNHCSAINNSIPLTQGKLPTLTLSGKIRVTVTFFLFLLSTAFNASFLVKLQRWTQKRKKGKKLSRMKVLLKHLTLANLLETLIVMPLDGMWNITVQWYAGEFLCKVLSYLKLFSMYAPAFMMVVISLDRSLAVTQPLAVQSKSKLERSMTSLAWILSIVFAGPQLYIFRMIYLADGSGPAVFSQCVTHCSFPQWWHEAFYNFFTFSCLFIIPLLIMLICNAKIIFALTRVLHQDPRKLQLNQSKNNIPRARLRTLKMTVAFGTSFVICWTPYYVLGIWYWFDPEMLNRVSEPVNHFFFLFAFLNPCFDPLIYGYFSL

| SMILES | IC50 [1] | IC50 [2] |
| --- | --- | --- |
| COc1ccc([N+](=O)[O-])cc1CSc1nc2cc(NC(=O)NC(C)C)ccc2n1C(C)C | 600 nM | 280 nM |
| CC(C)n1c(SCc2ccccc2Cl)nc2cc(NC(=O)C3CC3)ccc21 | 6300 nM | > 10000 nM |
| COc1ccc([N+](=O)[O-])cc1CSc1nc2cc(NC(=O)OC(C)(C)C)ccc2n1C(C)C | 880 nM | 710 nM |
| COc1ccc([N+](=O)[O-])cc1CSc1nc2cc(NC(=O)NC(C)(C)C)ccc2n1C1CC1 | 79 nM | 860 nM |
| CNC(=O)Nc1ccc2c(c1)nc(SCc1cc([N+](=O)[O-])ccc1OC)n2C(C)C | 3300 nM | > 10000 nM |
| COC(=O)c1ccc(OC)c(CSc2nc3cc(NC(=O)C4CC4)ccc3n2C(C)C)c1 | 980 nM | > 10000 nM |
| COc1ccc([N+](=O)[O-])cc1CSc1nc2cc(NC(=O)C3CCC3)ccc2n1C(C)C | 1500 nM | 630 nM |
| COc1ccc([N+](=O)[O-])cc1CSc1nc2cc(NC(=O)C3CC3)ccc2n1C(C)C | 280 nM | > 8200 nM |
| COc1ccc([N+](=O)[O-])cc1CSc1nc2cc(NC(=O)NC(C)(C)C)ccc2n1Cc1ccccn1 | 43 nM | 670 nM |
| COc1ccc(Cl)cc1CSc1nc2cc(NC(=O)C3CC3)ccc2n1C(C)C | 160 nM | > 10000 nM |
| COc1ccc([N+](=O)[O-])cc1CSc1nc2cc(NC(=O)CC(C)(C)C)ccc2n1C(C)C | 180 nM | 110 nM |
| COc1ccc(C#N)cc1CSc1nc2cc(NC(=O)C3CC3)ccc2n1C(C)C | 570 nM | > 10000 nM |
| COc1ccc([N+](=O)[O-])cc1CSc1nc2cc(NC(=O)C(C)C)ccc2n1C(C)C | 250 nM | 1500 nM |
| Cc1ccccc1CSc1nc2cc(NC(=O)C3CC3)ccc2n1C(C)C | 3200 nM | > 10000 nM |
| COc1ccc([N+](=O)[O-])cc1CSc1nc2cc(NC(=O)NC3CC3)ccc2n1C(C)C | 1900 nM | 1600 nM |
| Cc1cccc(CSc2nc3cc(NC(=O)C4CC4)ccc3n2C(C)C)c1 | 6500 nM | > 10000 nM |
| COc1ccc([N+](=O)[O-])cc1CSc1nc2cc(NC(=O)NC(C)(C)C)ccc2n1-c1ccccc1 | 350 nM | > 2600 nM |
| COc1ccc([N+](=O)[O-])cc1CSc1nc2cc(NC(=O)NC(C)(C)C)ccc2n1Cc1ccccc1 | 28 nM | 160 nM |
| COc1ccc([N+](=O)[O-])cc1CSc1nc2cc(NC(=O)C(C)(C)C)ccc2n1C(C)C | 180 nM | > 10000 nM |
| COc1ccc(C(C)=O)cc1CSc1nc2cc(NC(=O)C3CC3)ccc2n1C(C)C | 260 nM | > 10000 nM |
| COc1ccccc1CSc1nc2cc(NC(=O)C3CC3)ccc2n1C(C)C | 2100 nM | > 10000 nM |
| COc1ccc([N+](=O)[O-])cc1CSc1nc2cc(NC(=O)NC(C)(C)C)ccc2n1C(C)C | 62 nM | 62 nM |

Results, then the molecule that gave them:

| IC50 [1] | IC50 [2] | SMILES |
| --- | --- | --- |
| 47 nM | 240 nM | COc1ccc([N+](=O)[O-])cc1CSc1nc2cc(NC(=O)NC(C)(C)C)ccc2n1Cc1ccncc1 |
| 120 nM | 130 nM | CCCn1c(SCc2cc([N+](=O)[O-])ccc2OC)nc2cc(NC(=O)NC(C)(C)C)cc(C(=O)NCc3ccccc3)c21 |
| 18 nM | 120 nM | CCCn1c(SCc2cc([N+](=O)[O-])ccc2OC)nc2cc(NC(=O)NC(C)(C)C)ccc21 |
| 37 nM | 280 nM | CCCn1c(SCc2cc([N+](=O)[O-])ccc2OC)nc2cc(NC(=O)NC(C)(C)C)cc(C(=O)OC)c21 |
| 21 nM | 510 nM | CCCn1c(SCc2cc([N+](=O)[O-])ccc2OC)nc2cc(NC(=O)NC(C)(C)C)cc(C(=O)O)c21 |
| 170 nM | 19 nM | CCCn1c(SCc2cc([N+](=O)[O-])ccc2OC)nc2cc(NC(=O)NC(C)(C)C)cc(C(=O)NCCCN(C)C)c21 |
| 31 nM | 51 nM | CCCn1c(SCc2cc([N+](=O)[O-])ccc2OC)nc2cc(NC(=O)NC(C)(C)C)cc(C(=O)NCc3ccccn3)c21 |
| 57 nM | 280 nM | COCCn1c(SCc2cc([N+](=O)[O-])ccc2OC)nc2cc(NC(=O)NC(C)(C)C)ccc21 |
| 210 nM | 55 nM | CCCn1c(SCc2cc([N+](=O)[O-])ccc2OC)nc2cc(NC(=O)NC(C)(C)C)cc(C(=O)NCCN)c21 |
| 190 nM | 21 nM | CCCn1c(SCc2cc([N+](=O)[O-])ccc2OC)nc2cc(NC(=O)NC(C)(C)C)cc(C(=O)NCCCN(C)Cc3ccccc3)c21 |
| 360 nM | 300 nM | COc1ccc([N+](=O)[O-])cc1CSc1nc2cc(NC(=O)NC(C)(C)C)ccc2n1CCc1ccccc1 |
| 270 nM | 200 nM | CCCn1c(SCc2cc([N+](=O)[O-])ccc2OC)nc2cc(NC(=O)NC(C)(C)C)cc(C(=O)N(C)C)c21 |
| 33 nM | 150 nM | COc1ccc([N+](=O)[O-])cc1CSc1nc2cc(NC(=O)NC(C)(C)C)ccc2n1Cc1cccnc1 |
| 42 nM | 170 nM | CCn1c(SCc2cc([N+](=O)[O-])ccc2OC)nc2cc(NC(=O)NC(C)(C)C)ccc21 |
| 160 nM | 110 nM | CCCn1c(SCc2cc([N+](=O)[O-])ccc2OC)nc2cc(NC(=O)NC(C)(C)C)cc(C(=O)NCCc3cccnc3)c21 |
| 27 nM | 56 nM | CCCn1c(SCc2cc([N+](=O)[O-])ccc2OC)nc2cc(NC(=O)NC(C)(C)C)cc(C(=O)NCCc3ccccn3)c21 |
| 210 nM | 880 nM | CCCCCn1c(SCc2cc([N+](=O)[O-])ccc2OC)nc2cc(NC(=O)NC(C)(C)C)ccc21 |
| 410 nM | 490 nM | CCCn1c(SCc2cc([N+](=O)[O-])ccc2OC)nc2cc(NC(=O)NC(C)(C)C)cc(C(=O)NC(C)(C)C)c21 |
| 610 nM | 140 nM | CCCn1c(SCc2cc([N+](=O)[O-])ccc2OC)nc2cc(NC(=O)NC(C)(C)C)cc(C(=O)N3CCCC3)c21 |
| 23 nM | 330 nM | CCCCn1c(SCc2cc([N+](=O)[O-])ccc2OC)nc2cc(NC(=O)NC(C)(C)C)ccc21 |
| 69 nM | 54 nM | CCCn1c(SCc2cc([N+](=O)[O-])ccc2OC)nc2cc(NC(=O)NC(C)(C)C)cc(C(=O)NCc3cccnc3)c21 |
| 61 nM | 35 nM | CCCn1c(SCc2cc([N+](=O)[O-])ccc2OC)nc2cc(NC(=O)NC(C)(C)C)cc(C(=O)NCc3ccncc3)c21 |
| 41 nM | 23 nM | CCCn1c(SCc2cc([N+](=O)[O-])ccc2OC)nc2cc(NC(=O)NC(C)(C)C)cc(C(=O)NC)c21 |
| 130 nM | 45 nM | CCCn1c(SCc2cc([N+](=O)[O-])ccc2OC)nc2cc(NC(=O)NC(C)(C)C)cc(C(=O)NCCc3ccncc3)c21 |

Source: ChEMBL document CHEMBL1141922, “Benzimidazoles as non-peptide luteinizing hormone-releasing hormone (LHRH) antagonists. Part 3: Discovery of 1-(1H-benzimidazol-5-yl)-3-tert-butylurea derivatives” (Bioorg Med Chem Lett, 2005)
